According to the NIST ThermoML archive (doi:10.1021/je0341918):

Assay: molar heat capacity at constant pressure; xn = mol fraction of the nth substance listed
Settings: 101.3 kPa, Liquid, Small sample (50 mg) DSC

OCCCCO [1,4-butanediol] + O
molar heat capacity at constant pressure [J/K/mol]
Settings	x1 = 0.0218	x1 = 0.0478	x1 = 0.0789	x1 = 0.1175	x1 = 0.1665	x1 = 0.2305	x1 = 0.4441	x1 = 0.6426	x1 = 1
293.15 K	88.5	97.3	103.9	111.8	120.1	129	138.7	169.3	198.2
303.15 K	89.3	97.7	104.8	112.7	121.3	130.4	140.8	173.3	203.6
313.15 K	88.8	98.1	105.5	113.8	122.4	131.8	142.7	177.1	208.8
323.15 K	88.9	98.5	106.2	114.8	123.5	133.1	144.6	180.7	214
333.15 K	89.2	99.1	107.3	116	125	135.1	147.3	185.7	221.3
343.15 K	89.1	99.6	108.3	117.2	126.5	137	149.9	190.8	228.6
353.15 K	89.3	100.2	109.3	118.5	128.1	139.2	152.9	196.4	236.9
